One experiment concerns the target T1, VEGF-R2 (Rattus norvegicus, UniProt O08775).
T1 construct: polyhistidine (N)
The experiment is described as follows: VEGF-R2 Screening Assay. The format is biochemical. The conditions noted are these: rat VEGF-R2 kinase domain, 10 μM ATP. The procedure:
(§1) A kinase reaction mixture was prepared containing 50 mM Tris-HCl at pH 8, 10 mM MgCl2, 0.1 mM Na3PO4, 1 mM DTT, 10 μM ATP, 0.025 μM biotinylated histone-H1 peptide substrate and 0.2 μCuries per well ^33P-γ-ATP (2000-3000 Ci/mmol). 70 μL of the kinase reaction mixture was dispensed into the well of a Streptavidin FlashPlate.
(§2) Test compound stock in 100% DMSO (1 μL) was added to the wells resulting in a final concentration of 1% DMSO in the reaction with a 100 μL final reaction volume. Each enzyme was diluted in 50 mM Tris-HCl pH=8.0, 0.1% BSA and 30 μL was added to each well to initiate the reaction. The reaction was incubated for one hour at 30° C. At the end of the 1 hr incubation, the reaction was terminated by aspirating the mixture from the plate and washing the wells twice with PBS containing 100 mM EDTA. The biotinylated peptide substrate became immobilized on the Flashplate™ and the incorporation of ^33P-γ-ATP was measured by reading the plate on a scintillation counter. Inhibition of the enzymatic activity was measured by observing a reduced amount of ^33P-γ-ATP incorporated into the immobilized peptide.
The VEGF-R2 enzyme is a fusion protein containing a polyhistidine tag at the N terminus followed by amino acids 786 to 1343 of the rat VEGF-R2 kinase domain (Accession number U93306). The assay used 150 ng of the N-terminal biotinylated peptide biotin-KHKKLAEGSAYEEV-amide (VEGF-R2) per well.
(§3) The IC50 was derived according to the procedure described in Example 1.

The next experiment addresses T2, Aurora-A (Mus musculus, UniProt P97477).
T2 construct: followed by the full length protein encoding the murine Aurora-A; polyhistidine (N); made in house; host or cells: Sf9 insect cells
T2 sequence (P97477 1-395): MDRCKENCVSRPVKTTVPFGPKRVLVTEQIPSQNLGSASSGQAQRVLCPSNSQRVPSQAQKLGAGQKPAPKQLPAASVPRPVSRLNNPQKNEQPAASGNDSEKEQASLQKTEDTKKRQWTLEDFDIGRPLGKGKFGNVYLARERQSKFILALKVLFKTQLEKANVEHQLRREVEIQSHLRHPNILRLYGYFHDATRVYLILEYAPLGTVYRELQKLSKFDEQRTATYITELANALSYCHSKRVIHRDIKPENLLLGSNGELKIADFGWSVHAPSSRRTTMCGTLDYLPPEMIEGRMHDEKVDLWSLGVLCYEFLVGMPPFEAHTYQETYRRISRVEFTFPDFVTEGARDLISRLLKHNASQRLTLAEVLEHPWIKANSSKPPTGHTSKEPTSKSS
The experiment is described as follows: Aurora-A Screening Assay. The format is biochemical. As to conditions: murine Aurora-A full length, 10 μM ATP. Here is the method: as §1, §2
Aurora-A is a fusion protein containing a polyhistidine tag at the N terminus followed by the full length protein encoding the murine Aurora-A (Accession number GB BC014711) expressed and purified from sf9 insect cells. The assay used 400 ng of the N-terminal biotinylated peptide biotin-GRTGRRNSI-amide (Aurora-A) per well.
as §3

The next experiment addresses T3, HER-2 (Homo sapiens, UniProt P04626).
T3 construct: the nucleotides encoding amino acids 679 to 1255 of HER-2; HIS6-Thrombin (His6 tag and thrombin site) (N); purchased Proqinase (Freiburg, Germany)
The experiment is described as follows: HER-2 Kinase Assay. The conditions noted are these: GST-HER2, 1 μM ATP. The format is biochemical. Here is the method: HER-2 kinase was purified at Proqinase (Freiburg, Germany) from a construct that consisted of a fusion of GST (Glutathione-S-Transferase), HIS6-Thrombin and the nucleotides encoding amino acids 679 to 1255 of HER-2.
A mixture of a 10× kinase reaction buffer (600 mM Hepes at pH 7.5, 30 mM Magnesium Chloride, 0.03 mM Sodium Vanadate and 500 μg/mL PEG 20,000), DTT (1.2 mM final from a 10 mM stock), ATP (1 μM from a 10 mM stock), biotinylated polyGluTyr (1.5 ng/μL final from stock of 1 μg/μL prepared by Upstate Biotechnologies, Lake Placid, N.Y.), Manganese Chloride (3 mM final from a 1 M stock), γ-^33P-ATP (10 μCi/μL stock) and water (70 μL/well) was added to each well of a Streptavidin Flashplate (Cat. # SMP103, NEN, Boston, Mass.).
Test compound stock (1 μL) was added to the appropriate wells. Diluted GSTHER2 kinase (6.7 ng/μL diluted into 50 mM Tris-HCl at pH 8.0 and 0.1% bovine serum albumin) (30 μL) was added (total volume of 200 ng/well) to initiate the reactions.
The reaction plates were incubated at 30° C. for 1 hr. The reaction was terminated by aspirating the reaction mixture from the plate wells and washing the wells three times with a 1×PBS stop buffer (300 μL) and 100 mM EDTA. After the final wash, the same stop buffer (200 μL) was again added to the wells. The plates were then sealed and read on the TopCount scintillation counter. The IC50 was derived according to the procedure described in Example 1.

Experiment [1] relates to HeLa cervical adenocarcinoma. Briefly: Cell Proliferation Inhibition Assay (14C-thymidine incorporation), HeLa. The format is cell-based. The conditions noted are these: Homo sapiens; HeLa cells. The procedure: (§4) The ability of a test compound to inhibit unregulated cell proliferation was determined by measuring incorporation of ^14C-labelled thymidine into newly synthesized DNA within cell lines derived from carcinomas originating from several tissues. Accordingly, the anti-proliferative effect of a compound on cells with a variety of phenotypes may be determined.
(§5) Carcinoma cell lines include those such as HeLa cervical adenocarcinoma (American Type Culture Collection (ATCC), Virginia, Cat. #CCL-2), A375 malignant melanoma (ATCC CRL-1619), SK-OV-3 ovarian adenocarcinoma (ATCC HTB-77), HCT-116 colon carcinoma (CCL-247), PC-3 prostate adenocarcinoma (ATCC CRL-1435), and MDA-MB-231 (Xenogen Corp.)
(§6) The carcinoma cells were trypsinized and counted. The cells (3000-8000 count) were added to each well of a 96-well CytoStar tissue culture treated scintillating microplate (Amersham #RPNQ0160) in complete medium (100 μL) and the plate was then incubated in complete medium for 24 hrs at 37° C. in an […] atmosphere containing 5% CO2. Test compound (1 μL) in 100% DMSO was added to the plate test-wells with DMSO only added to control-wells. The plate was incubated in complete medium for a second 24 hr period at 37° C. in an atmosphere containing 5% CO2.
(§7) An aliquot of a solution of methyl ^14C-thymidine (56 mC/mmol) (NEN #NEC568 or Amersham #CFA532) and complete medium (20 uL to provide 0.2 μCi/well) was then added to each well and the plate was incubated for a third 24 hr period at 37° C. in an atmosphere containing 5% CO2. The plate contents were then discarded, the plate was washed twice with PBS (200 μL) and then PBS (200 μL) was added to each well. The plate was sealed and the degree of methyl ^14C-thymidine incorporation was quantified on a Packard Top Count.

The test system of another experiment is A375 malignant melanoma. The experiment is described as follows: Cell Proliferation Inhibition Assay (14C-thymidine incorporation), A375. The conditions noted are these: Homo sapiens, A-375; A375 cells. The format is cell-based. The procedure:
as §4, §5, §6, §7

For a further experiment, the system named is HCT-116 colon carcinoma. The experiment is described as follows: Cell Proliferation Inhibition Assay (14C-thymidine incorporation), HCT116. The format is cell-based. The conditions noted are these: Homo sapiens, HCT116 cells. Here is the method:
as §4, §5, §6, §7

T1 sequence (O08775 786-1343): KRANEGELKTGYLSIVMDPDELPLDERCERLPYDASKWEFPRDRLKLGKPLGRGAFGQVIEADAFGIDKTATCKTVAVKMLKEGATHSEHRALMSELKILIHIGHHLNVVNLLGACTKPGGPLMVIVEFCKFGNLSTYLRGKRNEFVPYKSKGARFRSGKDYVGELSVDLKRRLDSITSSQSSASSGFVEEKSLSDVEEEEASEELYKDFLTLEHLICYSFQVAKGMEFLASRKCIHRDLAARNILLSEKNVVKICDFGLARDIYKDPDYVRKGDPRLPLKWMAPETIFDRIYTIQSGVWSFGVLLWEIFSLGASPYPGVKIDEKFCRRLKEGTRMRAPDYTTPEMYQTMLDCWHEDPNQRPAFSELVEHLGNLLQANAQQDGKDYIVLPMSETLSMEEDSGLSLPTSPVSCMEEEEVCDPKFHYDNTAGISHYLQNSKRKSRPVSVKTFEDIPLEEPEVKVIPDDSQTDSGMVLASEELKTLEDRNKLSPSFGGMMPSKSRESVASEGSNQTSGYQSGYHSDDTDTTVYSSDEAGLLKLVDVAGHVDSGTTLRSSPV
T3 sequence (P04626 679-1255): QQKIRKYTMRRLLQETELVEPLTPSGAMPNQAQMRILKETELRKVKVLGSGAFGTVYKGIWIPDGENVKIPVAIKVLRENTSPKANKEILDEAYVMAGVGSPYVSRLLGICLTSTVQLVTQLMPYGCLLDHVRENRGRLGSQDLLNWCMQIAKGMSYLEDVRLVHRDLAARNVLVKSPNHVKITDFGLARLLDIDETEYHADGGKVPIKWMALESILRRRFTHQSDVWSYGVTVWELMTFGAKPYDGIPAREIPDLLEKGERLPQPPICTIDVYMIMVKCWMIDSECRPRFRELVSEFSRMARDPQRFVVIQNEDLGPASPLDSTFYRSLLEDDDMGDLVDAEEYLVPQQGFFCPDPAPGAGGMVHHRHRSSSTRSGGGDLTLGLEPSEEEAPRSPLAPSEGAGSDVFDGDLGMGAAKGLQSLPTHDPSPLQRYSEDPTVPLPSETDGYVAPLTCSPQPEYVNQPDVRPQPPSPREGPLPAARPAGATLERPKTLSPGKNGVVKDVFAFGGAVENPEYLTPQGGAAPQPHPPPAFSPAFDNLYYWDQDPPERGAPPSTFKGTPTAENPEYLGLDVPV

As for `Cc1c(C(=O)NCCN2CCOCC2)sc2ncnc(Nc3ccc(NC(=O)c4ccccc4)cc3)c12` [Cpd 25, 4-(4-benzoylamino-phenylamino)-5-methyl-thieno[2,3-d]pyrimidine-6-carboxylic acid (2-morpholin-4-yl-ethyl)-amide], the IC50 is more than 100 µM against VEGF-R2; more than 10 µM on Aurora-A; more than 100 µM against HER-2; more than 10 µM in experiment [1]; more than 10 µM in the experiment with A375 malignant melanoma; more than 10 µM in the experiment on HCT-116 colon carcinoma.
`Cc1c(C(=O)NCCCN2CCOCC2)sc2ncnc(Nc3ccc(NC(=O)c4ccccc4)cc3)c12` [Cpd 26, 4-(4-benzoylamino-phenylamino)-5-methyl-thieno[2,3-d]pyrimidine-6-carboxylic acid (3-morpholin-4-yl-propyl)-amide]: the IC50 was more than 100 µM on VEGF-R2; more than 1 µM against Aurora-A; more than 10 µM on HER-2; more than 10 µM in experiment [1]; more than 10 µM in the experiment on A375 malignant melanoma; more than 10 µM in the experiment on HCT-116 colon carcinoma.

The values above are taken from US20080108611A1, “SUBSTITUTED THIENOPYRIMIDINE KINASE INHIBITORS” (priority 2006, published 2008).
